# Measured values taken from PubChem BioAssay (NCI).
#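 Grown in 96-well plates, cells were treated for 48 hours with each compound at five concentrations. Insufficient inhibition: endpoint recorded as highest concentration tested. TGI denotes the concentration required for complete inhibition of growth.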
# Experiments:
# Assay in all cases: inhibition of tumour cell growth, NCI panel, 48 h
# MCF7 breast = system: MCF7 breast
# RXF 393 renal = system: RXF 393 renal
# RPMI-8226 leukemia = system: RPMI-8226 leukemia
# M14 melanoma = system: M14 melanoma
# 786-0 renal = system: 786-0 renal
# NCI-H460 lung = system: NCI-H460 lung
# SK-MEL-2 melanoma = system: SK-MEL-2 melanoma
# SK-OV-3 ovarian = system: SK-OV-3 ovarian
# LOX IMVI melanoma = system: LOX IMVI melanoma
# NCI-H522 lung = system: NCI-H522 lung
# SF-295 CNS = system: SF-295 CNS
# PC-3 prostate = system: PC-3 prostate
# SF-539 CNS = system: SF-539 CNS
# HCT-15 colon = system: HCT-15 colon
# NCI-H23 lung = system: NCI-H23 lung
# SK-MEL-28 melanoma = system: SK-MEL-28 melanoma
# OVCAR-4 ovarian = system: OVCAR-4 ovarian
# T-47D breast = system: T-47D breast
# MDA-N = system: MDA-N
# OVCAR-3 ovarian = system: OVCAR-3 ovarian
# CCRF-CEM leukemia = system: CCRF-CEM leukemia
# COLO 205 colon = system: COLO 205 colon
# DU-145 prostate = system: DU-145 prostate
# SN12C renal = system: SN12C renal
# BT-549 breast = system: BT-549 breast
# SK-MEL-5 melanoma = system: SK-MEL-5 melanoma
# UACC-62 melanoma = system: UACC-62 melanoma
# NCI-H226 lung = system: NCI-H226 lung
# K-562 leukemia = system: K-562 leukemia
# SNB-19 CNS = system: SNB-19 CNS
# HL-60(TB) leukemia = system: HL-60(TB) leukemia
# HOP-62 NSCLC = system: HOP-62 NSCLC
# NCI/ADR-RES ovarian = system: NCI/ADR-RES ovarian
# KM12 colon = system: KM12 colon
# SR leukemia = system: SR leukemia
# SF-268 CNS = system: SF-268 CNS
# ACHN renal = system: ACHN renal
# MALME-3M melanoma = system: MALME-3M melanoma
# MDA-MB-231 breast = system: MDA-MB-231 breast
# EKVX NSCLC = system: EKVX NSCLC
# U251 CNS = system: U251 CNS
# SW-620 colon = system: SW-620 colon
# OVCAR-5 ovarian = system: OVCAR-5 ovarian
# HCT-116 colon = system: HCT-116 colon
# HOP-92 NSCLC = system: HOP-92 NSCLC
# IGROV1 ovarian = system: IGROV1 ovarian
# A549 NSCLC = system: A549 NSCLC
# OVCAR-8 ovarian = system: OVCAR-8 ovarian
# UO-31 renal = system: UO-31 renal
# SNB-75 CNS = system: SNB-75 CNS
# CAKI-1 renal = system: CAKI-1 renal
# HCC-2998 colon = system: HCC-2998 colon
# UACC-257 melanoma = system: UACC-257 melanoma
# A498 renal = system: A498 renal
# MDA-MB-435 = system: MDA-MB-435
# HT29 colon = system: HT29 colon
# MOLT-4 leukemia = system: MOLT-4 leukemia
# TK-10 renal = system: TK-10 renal
smiles,measurement,setting,value
CCCCCC(/C=C/C1CCC(=O)C1)OCOCCOC (stereo not drawn),TGI,MCF7 breast,> 100 µM
same,TGI,RXF 393 renal,> 100 µM
same,TGI,RPMI-8226 leukemia,60.3 µM
same,TGI,M14 melanoma,> 100 µM
same,TGI,786-0 renal,42.5 µM
same,TGI,NCI-H460 lung,> 100 µM
same,TGI,SK-MEL-2 melanoma,> 100 µM
same,TGI,SK-OV-3 ovarian,> 100 µM
same,TGI,LOX IMVI melanoma,> 71 µM
same,TGI,NCI-H522 lung,36 µM
same,TGI,SF-295 CNS,> 100 µM
same,TGI,PC-3 prostate,> 100 µM
same,TGI,SF-539 CNS,46.3 µM
same,TGI,HCT-15 colon,> 100 µM
same,TGI,NCI-H23 lung,> 100 µM
same,TGI,SK-MEL-28 melanoma,> 100 µM
same,TGI,OVCAR-4 ovarian,> 100 µM
same,TGI,T-47D breast,> 100 µM
same,TGI,MDA-N,> 100 µM
same,TGI,OVCAR-3 ovarian,> 100 µM
same,TGI,CCRF-CEM leukemia,> 92.2 µM
same,TGI,COLO 205 colon,> 100 µM
same,TGI,DU-145 prostate,> 100 µM
same,TGI,SN12C renal,> 100 µM
same,TGI,BT-549 breast,> 71 µM
same,TGI,SK-MEL-5 melanoma,> 100 µM
same,TGI,UACC-62 melanoma,> 100 µM
same,TGI,NCI-H226 lung,> 100 µM
same,TGI,K-562 leukemia,> 86.7 µM
same,TGI,SNB-19 CNS,> 100 µM
same,TGI,HL-60(TB) leukemia,> 100 µM
same,TGI,HOP-62 NSCLC,> 100 µM
same,TGI,NCI/ADR-RES ovarian,99.2 µM
same,TGI,KM12 colon,> 100 µM
same,TGI,SR leukemia,> 81.8 µM
same,TGI,SF-268 CNS,> 71.7 µM
same,TGI,ACHN renal,58.6 µM
same,TGI,MALME-3M melanoma,> 100 µM
same,TGI,MDA-MB-231 breast,> 100 µM
same,TGI,EKVX NSCLC,> 100 µM
same,TGI,U251 CNS,> 100 µM
same,TGI,SW-620 colon,> 81.8 µM
same,TGI,OVCAR-5 ovarian,> 100 µM
same,TGI,HCT-116 colon,> 73.6 µM
same,TGI,HOP-92 NSCLC,84.5 µM
same,TGI,IGROV1 ovarian,> 100 µM
same,TGI,A549 NSCLC,> 100 µM
same,TGI,OVCAR-8 ovarian,> 95.4 µM
same,TGI,UO-31 renal,58.5 µM
same,TGI,SNB-75 CNS,57.8 µM
same,TGI,CAKI-1 renal,> 76.9 µM
same,TGI,HCC-2998 colon,> 100 µM
same,TGI,UACC-257 melanoma,> 66.7 µM
same,TGI,A498 renal,99.3 µM
same,TGI,MDA-MB-435,> 100 µM
same,TGI,HT29 colon,67.5 µM
same,TGI,MOLT-4 leukemia,44.5 µM
same,TGI,TK-10 renal,> 100 µM
